Test results published in the kinase profiling compilation of Christmann-Franck et al. (2016).

Key:
Assay in all cases: KINOMEscan competition binding
Conditions in all cases: compound 1.0 µM
OXSR1 (human) = OXSR1 (human) (UniProt O95747)
NUAK2 (human) = NUAK2 (human) (UniProt Q9H093)
PRKCD (human) = PRKCD (human) (UniProt Q05655)
STK36 (human) = STK36 (human) (UniProt Q9NRP7)
TAOK1 (human) = TAOK1 (human) (UniProt Q7L7X3)
RPS6KA2 KD2 (human) = RPS6KA2 KD2 (human) (UniProt Q15349)
NLK (human) = NLK (human) (UniProt Q9UBE8)
NUAK1 (human) = NUAK1 (human) (UniProt O60285)
DDR1 (human) = DDR1 (human) (UniProt Q08345)
RPS6KB1 (human) = RPS6KB1 (human) (UniProt P23443)
TEC (human) = TEC (human) (UniProt P42680)
BRSK2 (human) = BRSK2 (human) (UniProt Q8IWQ3)
CSF1R (human) = CSF1R (human) (UniProt P07333)
DYRK1A (human) = DYRK1A (human) (UniProt Q13627)
[1] = tested on: PIK3CA (human), P42336 [C420R]
MAPK9 (human) = MAPK9 (human) (UniProt P45984)
TGFBR1 (human) = TGFBR1 (human) (UniProt P36897)
STK38L (human) = STK38L (human) (UniProt Q9Y2H1)
MARK1 (human) = MARK1 (human) (UniProt Q9P0L2)
PAK7 (human) = PAK7 (human) (UniProt Q9P286)
SYK (human) = SYK (human) (UniProt P43405)
[2] = target: JAK1 JH2 pseudokinase (human) (UniProt P23458)
AURKA (human) = AURKA (human) (UniProt O14965)
CDK15 (human) = CDK15 (human) (UniProt Q96Q40)
MAP3K7 (human) = MAP3K7 (human) (UniProt O43318)
ROCK1 (human) = ROCK1 (human) (UniProt Q13464)
INSRR (human) = INSRR (human) (UniProt P14616)
MAP4K5 (human) = MAP4K5 (human) (UniProt Q9Y4K4)
DAPK1 (human) = DAPK1 (human) (UniProt P53355)
CDK11B (human) = CDK11B (human) (UniProt P21127)
MARK3 (human) = MARK3 (human) (UniProt P27448)
MAP3K10 (human) = MAP3K10 (human) (UniProt Q02779)
[3] = tested on: FLT3 (human), P36888 [N841I]
CHEK1 (human) = CHEK1 (human) (UniProt O14757)
HIPK3 (human) = HIPK3 (human) (UniProt Q9H422)
RIOK3 (human) = RIOK3 (human) (UniProt O14730)
CAMK4 (human) = CAMK4 (human) (UniProt Q16566)
EPHB2 (human) = EPHB2 (human) (UniProt P29323)
IRAK1 (human) = IRAK1 (human) (UniProt P51617)
ADCK4 (human) = ADCK4 (human) (UniProt Q96D53)
[4] = tested on: EGFR (human), P00533 [L858R]
PIM1 (human) = PIM1 (human) (UniProt P11309)
BRSK1 (human) = BRSK1 (human) (UniProt Q8TDC3)

Sequence of PIK3CA (human), P42336 [C420R] (P42336 whole entry C420R, looked up): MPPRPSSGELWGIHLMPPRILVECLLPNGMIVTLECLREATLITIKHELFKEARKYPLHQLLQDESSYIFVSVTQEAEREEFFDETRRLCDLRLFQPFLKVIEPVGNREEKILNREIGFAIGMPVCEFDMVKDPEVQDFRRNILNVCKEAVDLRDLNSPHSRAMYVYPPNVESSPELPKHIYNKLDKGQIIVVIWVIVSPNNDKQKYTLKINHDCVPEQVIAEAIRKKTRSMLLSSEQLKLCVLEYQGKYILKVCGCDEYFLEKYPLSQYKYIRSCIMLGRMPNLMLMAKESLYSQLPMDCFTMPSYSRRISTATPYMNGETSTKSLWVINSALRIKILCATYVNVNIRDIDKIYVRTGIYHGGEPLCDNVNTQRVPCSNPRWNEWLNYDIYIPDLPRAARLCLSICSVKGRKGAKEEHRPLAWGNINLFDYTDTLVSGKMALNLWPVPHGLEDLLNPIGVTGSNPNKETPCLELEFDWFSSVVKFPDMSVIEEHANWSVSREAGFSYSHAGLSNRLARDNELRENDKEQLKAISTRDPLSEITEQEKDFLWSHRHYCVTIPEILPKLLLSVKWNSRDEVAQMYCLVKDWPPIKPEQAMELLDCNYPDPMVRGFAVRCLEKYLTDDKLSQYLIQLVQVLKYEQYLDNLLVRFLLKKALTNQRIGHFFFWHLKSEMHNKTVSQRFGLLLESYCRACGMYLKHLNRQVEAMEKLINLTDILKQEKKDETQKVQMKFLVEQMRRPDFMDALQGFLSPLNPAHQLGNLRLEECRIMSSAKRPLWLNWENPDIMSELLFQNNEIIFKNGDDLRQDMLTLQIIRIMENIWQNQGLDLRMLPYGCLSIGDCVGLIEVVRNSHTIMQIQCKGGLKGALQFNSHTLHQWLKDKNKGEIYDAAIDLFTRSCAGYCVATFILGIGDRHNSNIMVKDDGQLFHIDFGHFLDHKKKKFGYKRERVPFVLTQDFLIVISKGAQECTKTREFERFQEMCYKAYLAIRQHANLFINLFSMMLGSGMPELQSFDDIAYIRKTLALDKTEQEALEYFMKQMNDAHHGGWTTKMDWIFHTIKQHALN
Sequence of OXSR1 (human) (O95747 whole entry, looked up): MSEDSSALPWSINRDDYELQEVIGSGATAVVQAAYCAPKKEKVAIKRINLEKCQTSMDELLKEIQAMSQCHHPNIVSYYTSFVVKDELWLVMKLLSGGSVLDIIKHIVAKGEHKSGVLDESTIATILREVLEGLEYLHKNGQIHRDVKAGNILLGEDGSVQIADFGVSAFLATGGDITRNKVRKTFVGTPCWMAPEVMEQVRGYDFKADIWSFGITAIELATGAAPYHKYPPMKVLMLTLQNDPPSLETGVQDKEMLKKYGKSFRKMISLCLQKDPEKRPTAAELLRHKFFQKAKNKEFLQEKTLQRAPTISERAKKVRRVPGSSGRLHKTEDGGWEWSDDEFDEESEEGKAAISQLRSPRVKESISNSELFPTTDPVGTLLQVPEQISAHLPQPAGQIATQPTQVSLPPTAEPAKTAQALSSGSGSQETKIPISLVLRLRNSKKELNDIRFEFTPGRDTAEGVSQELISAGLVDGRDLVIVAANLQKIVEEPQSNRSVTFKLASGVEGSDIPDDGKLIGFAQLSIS
Sequence of BRSK2 (human) (Q8IWQ3 whole entry, looked up): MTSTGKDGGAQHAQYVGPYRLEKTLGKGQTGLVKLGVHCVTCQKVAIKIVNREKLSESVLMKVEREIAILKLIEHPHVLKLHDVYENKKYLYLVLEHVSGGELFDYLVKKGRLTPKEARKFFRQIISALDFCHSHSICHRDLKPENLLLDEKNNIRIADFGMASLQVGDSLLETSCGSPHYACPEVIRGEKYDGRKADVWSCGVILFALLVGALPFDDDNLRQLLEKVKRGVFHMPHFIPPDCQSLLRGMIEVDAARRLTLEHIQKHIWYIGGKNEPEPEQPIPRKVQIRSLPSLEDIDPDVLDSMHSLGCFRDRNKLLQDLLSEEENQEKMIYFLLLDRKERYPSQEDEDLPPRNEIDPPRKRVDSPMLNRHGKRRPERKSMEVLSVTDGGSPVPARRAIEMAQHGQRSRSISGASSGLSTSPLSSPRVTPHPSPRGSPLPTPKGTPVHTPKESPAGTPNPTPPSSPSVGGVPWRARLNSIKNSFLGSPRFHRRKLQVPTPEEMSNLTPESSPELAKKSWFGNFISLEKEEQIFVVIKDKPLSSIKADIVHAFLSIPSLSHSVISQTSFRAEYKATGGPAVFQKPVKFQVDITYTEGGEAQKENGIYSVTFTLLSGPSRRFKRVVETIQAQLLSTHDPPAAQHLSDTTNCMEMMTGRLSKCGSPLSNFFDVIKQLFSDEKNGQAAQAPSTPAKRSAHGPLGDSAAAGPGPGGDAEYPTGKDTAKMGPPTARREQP
Sequence of RIOK3 (human) (O14730 whole entry, looked up): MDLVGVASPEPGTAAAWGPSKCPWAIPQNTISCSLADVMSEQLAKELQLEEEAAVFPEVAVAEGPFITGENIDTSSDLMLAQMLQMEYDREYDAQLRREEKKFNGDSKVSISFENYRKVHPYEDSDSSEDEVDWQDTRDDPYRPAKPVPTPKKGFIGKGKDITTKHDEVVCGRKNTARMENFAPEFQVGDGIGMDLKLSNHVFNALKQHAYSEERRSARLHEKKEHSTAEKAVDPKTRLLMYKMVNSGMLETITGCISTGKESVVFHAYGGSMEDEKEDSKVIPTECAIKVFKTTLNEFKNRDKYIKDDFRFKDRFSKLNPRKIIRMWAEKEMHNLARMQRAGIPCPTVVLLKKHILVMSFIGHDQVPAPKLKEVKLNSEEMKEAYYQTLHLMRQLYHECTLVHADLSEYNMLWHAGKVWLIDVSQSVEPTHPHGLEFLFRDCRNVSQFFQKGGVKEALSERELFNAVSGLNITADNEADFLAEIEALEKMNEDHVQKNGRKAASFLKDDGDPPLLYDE
Sequence of MARK1 (human) (Q9P0L2 whole entry, looked up): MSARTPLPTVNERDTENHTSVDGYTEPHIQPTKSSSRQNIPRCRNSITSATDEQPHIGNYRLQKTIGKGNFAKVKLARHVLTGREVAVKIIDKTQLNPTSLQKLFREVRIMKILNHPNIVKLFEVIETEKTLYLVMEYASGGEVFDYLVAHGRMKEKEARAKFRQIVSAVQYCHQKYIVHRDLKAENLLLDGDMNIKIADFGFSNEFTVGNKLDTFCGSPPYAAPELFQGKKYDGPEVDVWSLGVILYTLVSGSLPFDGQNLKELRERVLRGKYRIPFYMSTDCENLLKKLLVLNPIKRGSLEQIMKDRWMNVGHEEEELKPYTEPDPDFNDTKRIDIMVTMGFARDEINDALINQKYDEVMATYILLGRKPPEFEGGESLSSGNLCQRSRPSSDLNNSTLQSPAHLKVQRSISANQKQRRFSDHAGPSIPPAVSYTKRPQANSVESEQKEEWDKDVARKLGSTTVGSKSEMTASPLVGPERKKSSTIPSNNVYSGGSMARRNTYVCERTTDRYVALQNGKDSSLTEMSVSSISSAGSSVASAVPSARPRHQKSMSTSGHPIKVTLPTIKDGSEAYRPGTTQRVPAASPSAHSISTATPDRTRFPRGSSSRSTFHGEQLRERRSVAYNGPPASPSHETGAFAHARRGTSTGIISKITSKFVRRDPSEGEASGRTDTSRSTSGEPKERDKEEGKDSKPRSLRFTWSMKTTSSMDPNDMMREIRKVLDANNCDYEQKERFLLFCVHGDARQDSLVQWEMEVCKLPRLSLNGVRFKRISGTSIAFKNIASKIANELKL
Sequence of DAPK1 (human) (P53355 whole entry, looked up): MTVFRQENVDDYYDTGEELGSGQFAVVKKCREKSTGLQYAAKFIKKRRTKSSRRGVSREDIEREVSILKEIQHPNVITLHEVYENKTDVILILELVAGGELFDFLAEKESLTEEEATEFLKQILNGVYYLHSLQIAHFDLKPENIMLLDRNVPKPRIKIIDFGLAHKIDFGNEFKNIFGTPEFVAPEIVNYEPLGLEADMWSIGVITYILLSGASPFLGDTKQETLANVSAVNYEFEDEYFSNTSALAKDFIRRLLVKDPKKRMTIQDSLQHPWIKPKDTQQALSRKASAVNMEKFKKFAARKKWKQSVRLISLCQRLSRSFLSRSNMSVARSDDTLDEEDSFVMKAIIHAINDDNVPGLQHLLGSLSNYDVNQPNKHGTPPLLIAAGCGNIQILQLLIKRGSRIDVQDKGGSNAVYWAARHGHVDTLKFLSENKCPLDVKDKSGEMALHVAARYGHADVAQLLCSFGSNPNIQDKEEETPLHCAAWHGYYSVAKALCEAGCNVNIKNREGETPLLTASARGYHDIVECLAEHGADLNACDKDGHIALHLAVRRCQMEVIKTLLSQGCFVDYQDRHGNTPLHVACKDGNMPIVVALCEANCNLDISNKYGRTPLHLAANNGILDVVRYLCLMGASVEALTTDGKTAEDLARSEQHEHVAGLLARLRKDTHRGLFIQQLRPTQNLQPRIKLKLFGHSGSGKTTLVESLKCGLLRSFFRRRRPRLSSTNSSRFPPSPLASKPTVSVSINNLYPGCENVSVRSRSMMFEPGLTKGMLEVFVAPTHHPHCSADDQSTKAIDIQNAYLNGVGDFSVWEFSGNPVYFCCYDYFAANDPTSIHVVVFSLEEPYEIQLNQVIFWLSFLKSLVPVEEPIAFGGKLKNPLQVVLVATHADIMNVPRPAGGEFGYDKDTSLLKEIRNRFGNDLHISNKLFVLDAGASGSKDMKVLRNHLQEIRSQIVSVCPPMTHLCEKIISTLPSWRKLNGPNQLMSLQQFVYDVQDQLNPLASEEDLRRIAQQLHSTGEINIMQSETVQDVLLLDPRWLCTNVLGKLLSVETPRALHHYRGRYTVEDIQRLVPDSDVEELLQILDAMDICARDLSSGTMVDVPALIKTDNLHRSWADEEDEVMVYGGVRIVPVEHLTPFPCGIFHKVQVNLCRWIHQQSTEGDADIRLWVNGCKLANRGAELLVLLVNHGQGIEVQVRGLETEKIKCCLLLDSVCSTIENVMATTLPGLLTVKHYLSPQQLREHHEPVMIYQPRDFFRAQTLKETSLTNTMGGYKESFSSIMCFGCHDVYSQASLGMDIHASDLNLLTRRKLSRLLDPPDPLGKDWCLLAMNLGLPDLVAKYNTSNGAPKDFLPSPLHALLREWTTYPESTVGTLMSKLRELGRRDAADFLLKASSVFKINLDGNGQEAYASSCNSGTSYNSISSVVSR

CN(C)C/C=C/C(=O)Nc1cccc(C(=O)Nc2ccc(Nc3nccc(-c4cccnc4)n3)cc2)c1
kinase still bound, per cent of control (OXSR1 (human)): 96% | kinase still bound, per cent of control (NUAK2 (human)): 31% | kinase still bound, per cent of control (PRKCD (human)): 76% | kinase still bound, per cent of control (STK36 (human)): 30% | kinase still bound, per cent of control (TAOK1 (human)): 13% | kinase still bound, per cent of control (RPS6KA2 KD2 (human)): 92% | kinase still bound, per cent of control (NLK (human)): 81% | kinase still bound, per cent of control (NUAK1 (human)): 37% | kinase still bound, per cent of control (DDR1 (human)): 100% | kinase still bound, per cent of control (RPS6KB1 (human)): 68% | kinase still bound, per cent of control (TEC (human)): 100% | kinase still bound, per cent of control (BRSK2 (human)): 98% | kinase still bound, per cent of control (CSF1R (human)): 52% | kinase still bound, per cent of control (DYRK1A (human)): 37% | kinase still bound, per cent of control [1]: 100% | kinase still bound, per cent of control (MAPK9 (human)): 0% | kinase still bound, per cent of control (TGFBR1 (human)): 86% | kinase still bound, per cent of control (STK38L (human)): 99% | kinase still bound, per cent of control (MARK1 (human)): 68% | kinase still bound, per cent of control (PAK7 (human)): 75% | kinase still bound, per cent of control (SYK (human)): 66% | kinase still bound, per cent of control [2]: 8.6% | kinase still bound, per cent of control (AURKA (human)): 67% | kinase still bound, per cent of control (CDK15 (human)): 96% | kinase still bound, per cent of control (MAP3K7 (human)): 34% | kinase still bound, per cent of control (ROCK1 (human)): 22% | kinase still bound, per cent of control (INSRR (human)): 100% | kinase still bound, per cent of control (MAP4K5 (human)): 52% | kinase still bound, per cent of control (DAPK1 (human)): 63% | kinase still bound, per cent of control (CDK11B (human)): 71% | kinase still bound, per cent of control (MARK3 (human)): 100% | kinase still bound, per cent of control (MAP3K10 (human)): 65% | kinase still bound, per cent of control [3]: 18% | kinase still bound, per cent of control (CHEK1 (human)): 100% | kinase still bound, per cent of control (HIPK3 (human)): 5.7% | kinase still bound, per cent of control (RIOK3 (human)): 8.3% | kinase still bound, per cent of control (CAMK4 (human)): 100% | kinase still bound, per cent of control (EPHB2 (human)): 90% | kinase still bound, per cent of control (IRAK1 (human)): 0.1% | kinase still bound, per cent of control (ADCK4 (human)): 69% | kinase still bound, per cent of control [4]: 91% | kinase still bound, per cent of control (PIM1 (human)): 94% | kinase still bound, per cent of control (BRSK1 (human)): 85%

Cc1cc(NC(=O)c2cccc(NC(=O)/C=C/CN(C)C)c2)ccc1Nc1nccc(-c2cccnc2)n1
kinase still bound, per cent of control (OXSR1 (human)): 89% | kinase still bound, per cent of control (NUAK2 (human)): 70% | kinase still bound, per cent of control (PRKCD (human)): 100% | kinase still bound, per cent of control (STK36 (human)): 91% | kinase still bound, per cent of control (TAOK1 (human)): 67% | kinase still bound, per cent of control (RPS6KA2 KD2 (human)): 100% | kinase still bound, per cent of control (NLK (human)): 70% | kinase still bound, per cent of control (NUAK1 (human)): 100% | kinase still bound, per cent of control (DDR1 (human)): 93% | kinase still bound, per cent of control (RPS6KB1 (human)): 100% | kinase still bound, per cent of control (TEC (human)): 100% | kinase still bound, per cent of control (BRSK2 (human)): 99% | kinase still bound, per cent of control (CSF1R (human)): 8.6% | kinase still bound, per cent of control (DYRK1A (human)): 81% | kinase still bound, per cent of control [1]: 99% | kinase still bound, per cent of control (MAPK9 (human)): 0% | kinase still bound, per cent of control (TGFBR1 (human)): 89% | kinase still bound, per cent of control (STK38L (human)): 100% | kinase still bound, per cent of control (MARK1 (human)): 100% | kinase still bound, per cent of control (PAK7 (human)): 88% | kinase still bound, per cent of control (SYK (human)): 100% | kinase still bound, per cent of control [2]: 91% | kinase still bound, per cent of control (AURKA (human)): 100% | kinase still bound, per cent of control (CDK15 (human)): 100% | kinase still bound, per cent of control (MAP3K7 (human)): 61% | kinase still bound, per cent of control (ROCK1 (human)): 63% | kinase still bound, per cent of control (INSRR (human)): 100% | kinase still bound, per cent of control (MAP4K5 (human)): 100% | kinase still bound, per cent of control (DAPK1 (human)): 100% | kinase still bound, per cent of control (CDK11B (human)): 100% | kinase still bound, per cent of control (MARK3 (human)): 100% | kinase still bound, per cent of control (MAP3K10 (human)): 87% | kinase still bound, per cent of control [3]: 93% | kinase still bound, per cent of control (CHEK1 (human)): 98% | kinase still bound, per cent of control (HIPK3 (human)): 100% | kinase still bound, per cent of control (RIOK3 (human)): 72% | kinase still bound, per cent of control (CAMK4 (human)): 100% | kinase still bound, per cent of control (EPHB2 (human)): 100% | kinase still bound, per cent of control (IRAK1 (human)): 13% | kinase still bound, per cent of control (ADCK4 (human)): 93% | kinase still bound, per cent of control [4]: 100% | kinase still bound, per cent of control (PIM1 (human)): 100% | kinase still bound, per cent of control (BRSK1 (human)): 100%
